Assay: Metabolic profile of [^14C] DHA (free, glucuronide and other conjugation fractions)
Type: in vivo, rats
Settings: for drug conjugation of the dose: rats i.v. 3 mg/20 μCi/kg
Description: About 2 ml of plasma and urine, and 1 – 2 g of faeces were used. Conjugates were hydrolyzed by glucuronidase (1000 FU/ml, Sigma-Aldrich, St. Louis, MO) at pH 4.6, 38°C for 24 hours. Active enzyme was checked by phenophthaleinglucuronide at the end of incubation. Urine and faecal samples were incubated for 48 hours and fresh enzyme was added after 24 hours. Total radioactivity in free, conjugated, and the remaining aqueous fractions were measured with liquid scintillation counters. Protein precipitates were dissolved in Solvable^R (200 mg in 1 ml) and counted for radioactivity after addition of scintillation cocktail.

In the case of `C[C@@H]1CC[C@H]2[C@@H]([14CH3])C(O)O[C@@H]3O[C@@]4(C)CC[C@@H]1[C@]32OO4` (stereo partly drawn) [[^14C] DHA, [16-^14C] DHA], the “ratio of conjugation to free” value (plasma, 10 minutes) was 1.86, the “ratio of conjugation to free” value (plasma, 1 hour after dosing) was 4.48 and the “ratio of conjugation to free” value (plasma, 192 hours) was 15.1. For the same molecule, the “ratio of conjugation to free” value (plasma, within five minutes after dosing) was 1.07, the “drug conjugation of the dose” value (plasma) was “up to 89%” and the “drug conjugation of the dose” value (urine) was at most 95%.

From publication PMC2694832, “Pharmacokinetics, tissue distribution and mass balance of radiolabeled dihydroartemisinin in male rats” (Malaria Journal, 2009)
